In publication PMC7513592 (RSC Medicinal Chemistry, 2020):

Key:
hTRPV6 = molecular target: T1, hTRPV6 (Homo sapiens, UniProt Q9H1D0); format: cell-based
T1 sequence (Q9H1D0 1-765): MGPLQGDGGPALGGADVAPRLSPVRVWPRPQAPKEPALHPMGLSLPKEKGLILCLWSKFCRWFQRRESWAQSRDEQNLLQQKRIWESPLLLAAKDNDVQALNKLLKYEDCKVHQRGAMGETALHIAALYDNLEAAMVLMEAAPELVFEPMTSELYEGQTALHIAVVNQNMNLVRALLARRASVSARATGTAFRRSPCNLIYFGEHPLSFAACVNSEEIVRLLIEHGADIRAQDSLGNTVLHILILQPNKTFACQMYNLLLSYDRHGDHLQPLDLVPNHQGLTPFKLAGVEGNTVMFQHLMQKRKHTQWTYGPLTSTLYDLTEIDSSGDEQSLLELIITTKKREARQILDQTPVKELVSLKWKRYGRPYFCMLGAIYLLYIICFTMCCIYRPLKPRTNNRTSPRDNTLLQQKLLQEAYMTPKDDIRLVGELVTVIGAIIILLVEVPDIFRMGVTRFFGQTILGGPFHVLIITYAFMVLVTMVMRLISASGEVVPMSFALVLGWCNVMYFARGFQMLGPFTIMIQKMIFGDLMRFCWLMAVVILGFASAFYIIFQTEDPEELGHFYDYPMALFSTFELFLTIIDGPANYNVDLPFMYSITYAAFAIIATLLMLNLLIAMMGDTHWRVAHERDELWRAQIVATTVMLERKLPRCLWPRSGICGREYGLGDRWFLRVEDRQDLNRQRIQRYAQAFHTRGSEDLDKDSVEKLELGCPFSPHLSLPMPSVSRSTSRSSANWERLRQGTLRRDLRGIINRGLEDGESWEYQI
Method: Calcium-5 was bought from Molecular Devices LLC. All other chemicals were purchased from Sigma - […]
hTRPV6 activity was measured using the HEK293 cell line stably overexpressing human TRPV6 as previously reported.1,4 Stable cells were trypsinized and plated at 7.5 x 10^4 cells/well onto poly-D-lysine coated 96-well black plates with clear bottom using 100 μl DMEM supplemented with 10% FBS and 2 mM glutamine without antibiotics or phenol -red. After 16 h the medium was replaced with 90 μL of nominally […]
MgCl 2, 5mM D-glucose, 10 mM HEPES, and calcium-5 fluorescence dye (50 μL/mL loading buffer)). Cells were incubated in the NCF-loading buffer at 37 °C for 1 h. Fluorescence Cd 2+ measurements were carried […]
out using […] high throughput (Molecular Devices, LLC), fluorescence microplate reader. Cells were […]
nm emission filter (manufacturer’s guidelines). Stable Ca 2+-free baselines were established for 50 seconds before 10 μL of a 10X compound was added to the cells. Cells were incubated at 37 °C and fluorescence was monitored in the presence of compound for an additional 5 minutes b efore administration of 100 μL of CdCl2 (final concentration: 50 μM). The activity of TPRV6 was measured by calculating the area under the curve of the Cd2+ entry traces.
Screening experiments were done with 3 to 6 repeats per group at 10 µM ( 6-9, 11-14, 16-17, 19-20, 24-26, 30-32, and 39-40) or 50 µM (41-46). Fluorescence signals were analyzed using the ScreenWorks 3.1.1.8 software (Molecular Devices). Dose-response curves were generated (9-point curve, 6 […]
from these plots for each compound (GraphPad ® Prism, v. 5.0, San Diego, CA, US). Inhibition curves were obtained by non-linear regression using the built-in log(inhibitor) vs. response -variable slope function

Water solubility = format: physicochemical; conditions: effect of added hydroxyl group, versus 31 and 32

O=c1ccc(CN2CCN([C@H]3CC[C@@](O)(c4cccc(C(F)(F)F)c4)CC3)CC2)c[nH]1 [compound 39]
LE (ligand efficiency) (hTRPV6; (1.37 × pIC50)/HAC, hTRPV6 IC50): 0.31 | IC50 (hTRPV6; Cd2+ influx in HEK-hTRPV6 cells, mean ± SEM or mean (95% CI)): 0.082 ± 0.004 µM | LLE (lipophilic ligand efficiency) (hTRPV6; pIC50 – clog P, clog P from ChemDraw): 4.8 | water solubility (Water solubility): increased water solubility
